From patent US20200316159A1, “SUSTAINED RELEASE COMPOSITIONS OF KAPPA-OPIOID RECEPTOR AGONIST” (JT PHARMACEUTICALS, INC., priority 2016, published 2020)
Entries after “also recorded” stand apart in the source; their conditions may differ.

Legend:
[1] = test system: rewarding properties (compartment preference); experiment: Conditioned place preference; type: in vivo, rat; settings: 20 mg/kg p.o., alternate treatment over eight days; listed as JT09
Description: Conditioned Place Preference.
To test whether JT09 was able to condition appetitive behaviors, we used a conditioned place procedure. On day one, rats were habituated to a three-compartment apparatus for 10 min. One compartment was black with a grid floor and the other white with a rod floor. A smaller center compartment was gray with a solid floor. The amount of time spent in each compartment was recorded. The side in which the rats spent the least amount of time on habituation day was paired with JT09, in that rats receive the compound via oral gavage immediately before compartment placement. On alternating days, rats were treated with saline and confined in the opposite compartment. Rats were confined to each compartment for 25 minutes. Test rats were orally gavaged with saline and given access to the entire apparatus for 10 minutes. The amount of time spent in each compartment was recorded.

[2] = test system: peripheral pain (acetic acid-induced writhing); experiment: Acetic acid-induced writhing model (Example 1); type: in vivo, rat (male Sprague-Dawley)
Description: Acetic Acid-Induced Writhing Model.
This protocol is a well-established model of peripheral pain. Following oral or i.v. administration of compound, rats are rested for 20 min before i.p. injection with 2 ml/kg of 3% acetic acid. Animals are then rested an additional 10 min before being placed in a 10×10 inch chamber. A video of the rats is then recorded for next 20 min. The video is subsequently blindly scored by an investigator who examines each rat every 20 sec for the entire 20 min (60 individual observations). At each observation rats are scored on whether they are writhing or not. Writhing is defined as a constriction of the abdominal area, often with extension of the hind legs. At the end of the experiment the percent of the time the animal was writhing was calculated. The dose-response curves and EC50 values were generated using GraphPad Prism®.
As an initial biological screen the potential for oral availability of the 18 peptides in our library were evaluated in a well-established model of peripheral pain, the acetic acid-induced writhing assay. Rats were administered the various compounds by oral gavage at a screening dose of 20 mg/kg 20 min before i.p. injection with 2 ml/kg of 3% acetic acid. 10 min later animals were assessed for writhing as indicated in the methods section. […] Thus, several of the Arg modifications can impart CR665 with the ability to cross the gut barrier. Compounds 3, 7, 9, 11 and 17 were selected for further analysis.

[3] = test system: abuse liability (lever pressing for intravenous drug delivery); experiment: Self-administration model; type: in vivo, rat
From the text: Self-Administration Model.
Addiction/dependence is a critical side effect of opioids and must be evaluated with any new member of this family. The most reliable test of abuse liability with the most translational relevance is a contingent drug self-administration model, in which rats are trained to press a lever for intravenous drug delivery. Sixteen standard self-administration chambers (30×20×20 cm, Med Associates) were housed inside sound-attenuating cubicles fitted with a fan for airflow and to mask noise. Each chamber contained two retractable levers, two stimulus lights, a speaker for tone delivery, and a house light to provide general illumination. In addition, each chamber was equipped with a balanced metal arm and spring leash attached to a swivel (Instech). Tygon® tubing extended through the leash and was connected to a 10 ml syringe mounted on an infusion pump located outside the sound-attenuating cubicle. Rats were anesthetized with i.p. injections of ketamine (66 mg/kg; Vedcolnc, St Joseph, Mo., USA), xylazine (1.3 mg/kg; Lloyd Laboratories, Shenandoah, Iowa, USA), and equithesin (0.5 ml/kg); sodium pentobarbital (4 mg/kg), chloral hydrate (17 mg/kg), and 21.3 mg/kg magnesium sulfate heptahydrate dissolved in 44% propylene glycol, 10% ethanol solution). Ketorolac (2.0 mg/kg, i.p. Sigma, St. Louis, Mo., USA) was given just prior to surgery as an analgesic. One end of a silastic catheter was inserted 33 mm into the external right jugular and secured with 4.0 silk sutures. The other end ran subcutaneously and exited from a small incision just below the scapula. This end is attached to an infusion harness (Instech Solomon, Plymouth Meeting, Pa., USA) that provides access to an external port for IV drug delivery. […]
During self-administration, rats received an IV infusion (0.1 ml) of 10 U/ml heparinized saline before each session. […] Cocaine was chosen for comparison purposes because it is readily self-administered.

[4] = test system: dysphoria (time spent immobile); experiment: Forced swim assay; type: in vivo, rat
Description: The most common reason for discontinuing development of kappa agonists is the induction of dysphoria, which is mediated through CNS kappa receptors. To test for this side effect, we used an established model: the repeated forced swim assay. Rats were placed in a container with 30° C. water without an escape avenue. Time spent immobile during the last 4 min of each trial was recorded. Immobility was defined by a posture in which the forelimbs were motionless in front of the body, hind legs display limited motion, and the tail is directed outward. On day one, rats were placed in the water for 15 min. On the following day, placements consisted of four trials lasting 6 min each, separated by 10 mins. Salvorin A (1 mg/kg, i.p.) or JT09 (20 mg/kg, p.o.) were administered immediately before the first placement. Time spent immobile is a diagnostic of dysphoria and typically increases with each trial. Salvinorin A (a centrally available kappa agonist) was used as a positive control due to its known […] effects such as dysphoria.

[5] = Multiple dose study (14 days); type: in vivo, rat; settings: 30 mg/kg oral daily for 14 days
From the text: Tolerance to the analgesic effects of the lead compounds was be assessed using the acetic acid-induced writhing assay (described above). Daily clinical observations for behavioral toxicity (described above) were made during the course of the experiment and body weight and food consumption recorded on study days 3, 5, 7, 9, 11 and 13. On day 15, animals were sacrificed in their home cages by carbon dioxide inhalation from a compressed gas tank. A gross necroscopic analysis was immediately performed following euthanasia.

CCCC[C@@H](NC(=O)[C@@H](Cc1ccccc1)NC(=O)[C@H](N)Cc1ccccc1)C(=O)N[C@H](CCCCN(C)C)C(=O)NCc1ccncc1 [Compound 9]
conditioned place preference for drug-paired compartment over saline [1]: did not develop a preference; also recorded: had no effect on compartment placement | EC50, i.v. dose response in writhing assay ([2]; i.v.): 0.032 mg/kg | EC50, oral dose-response in acetic acid writhing model ([2]; oral): 4.7 mg/kg | lever responding in operant self-administration ([3]; IV infusion 20 mg/kg/inf, 2-hr sessions, five-day period, n=8): failed to maintain lever responding | number of infusions in self-administration ([3]; JT09 IV, days 2-5 compared to day one): decreased on all 4 days | immobility time in forced swim versus saline ([4]; 20 mg/kg p.o., listed as JT09): statistically indistinguishable; also recorded: did not induce more than a baseline time of immobility | immobility time in forced swim relative to salvinorin A ([4]; JT09 20 mg/kg p.o. versus salvinorin A 1 mg/kg i.p., all trials): lower amounts of time spent immobile | tolerance (negative CNS-mediated effects associated with morphine) [5]: does not promote | gross necropsy: heart, stomach, intestines, liver, spleen, pancreas, kidneys, adrenal glands, skeletal muscle, bone, reproductive organs, brain ([5]; six rats): grossly normal | gross necropsy: lungs ([5]; attributed to CO2 euthanasia hemorrhage): slight grey discoloration
